Measurements reported in US20230270767A1, “INHIBITORS OF ENPP1 AND METHODS OF USING SAME” (The Regents of the University of California, priority 2017, published 2023).

Experiments:
C3H mice = assay: Post injury cardiac calcification after cardiac cryo injury in mice (gross inspection, micro CT, biochemical calcium measurement); format: in vivo, mouse; conditions: for post injury cardiac calcification on gross inspection: ENPP1 inhibitor by continuous infusion (mini pump) for 2 days prior to cardiac injury and 5 days after injury, compared to vehicle; for reduction in calcium deposits in the injured hearts (biochemical measurements): ENPP1 inhibitor by continuous infusion for 2 days prior to and 5 days after injury, p<0.05; for decrease in calcific deposits / calcification on micro CT with 3D reconstruction: ENPP1 inhibitor by continuous infusion for 2 days prior to cardiac injury and 5 days after injury, compared to vehicle treated animals
Description: We next investigated whether cardiac fibroblasts can adopt osteoblast cell like fates in vivo and directly contribute to ectopic calcification of the myocardium. To address this question, we created three murine models of myocardial calcification and determined with lineage trace techniques whether genetically labeled cardiac fibroblasts adopted an osteoblast phenotype and contributed to heart calcification in vivo. Cardiac injury or aging in certain strains of mice (e.g. C3H/HeJ, BALB/cByJ, DBA/2J) can lead to the development of calcification within the myocardium (Glass et al., 2013);(Ivandic et al., 1996);(Korff et al., 2006). We used several different methods to induce myocardial injury in C3H strain of mice. First, we administered high dose systemic steroids daily for 10 days which is known to induce myocyte necrosis (Sparks et al., 1955). […] Finally, ischemic injury of the myocardium by ligating the left anterior descending (LAD) coronary artery, (Korff et al., 2006) led to patchy calcification of the injury region within 4 weeks of ischemic insult (Cell Stem Cell (2017) 20:1-15, the FIGURE). Consistent with the known association of fibrosis and calcification, we observed calcification only in regions where there was fibrosis (identified by Masson trichrome staining) (Cell Stem Cell (2017) 20:1-15, the FIGURE).
Calcification of the extracellular matrix is critically regulated by the balance of extracellular phosphate (Pi) and pyrophosphate (PPi) (Terkeltaub, 2001). Pyrophosphate is generated at the cell surface by the enzyme ectonucleotide pyrophosphatase/phosphodiesterase-1 (ENPP1) that breaks down ATP to AMP and PPi. Pyrophosphate is well recognized to inhibit calcium hydroxyapatite mineralization (Rutsch et al., 2011) in non-skeletal tissues, but in bone and teeth, pyrophosphate promotes mineralization by serving as a substrate for tissue non specific alkaline phosphatase that hydrolyzes pyrophosphate to generate inorganic phosphate (Terkeltaub, 2006). ENPP1 is expressed in osteoblasts, thought to regulate osteoblast maturation and bone mineralization and animals deficient in ENPP1 have decreased mineralization of long bones (Johnson et al., 2003). Considering the importance of ENPP1 in mineralization of the skeleton, we examined whether ENPP1, a gene identified by us to be differentially expressed (by RNA-seq) between calcific and non-calcified cardiac regions was contributing to ectopic cardiac calcification. We first confirmed our observation and subjected C3H mice and B6 mice to cryo-induced cardiac injury. […] Immunostaining for ENPP1 confirmed that ENPP1 was expressed in uninjured B6 hearts (Cell Stem Cell (2017) 20:1-15, the FIGURE) and was more abundant following injury (Cell Stem Cell (2017) 20:1-15, the FIGURE). […] We next determined whether cardiac fibroblasts in the injury region were a source of increased ENPP1 expression. We subjected Col1a2CreERT:R26R^tdTomato mice hearts to cardiac injury and observed abundant expression of ENPP1 by tdTomato labeled cardiac fibroblasts in calcified regions. (Cell Stem Cell (2017) 20:1-15, the FIGURE). Extracellular pyrophosphate generated by ENPP1 can induce mineralization of tissues by precipitating out as calcium pyrophosphate dihydrate (CPPD) or serving as a substrate for phosphate generation and formation of calcium hydroxyapatite. To distinguish between these two, we performed Raman spectroscopy (Chen et al., 2009) and observed that the myocardial calcific deposits comprised calcium hydroxyapatite and not pyrophosphate dihydrate (Cell Stem Cell (2017) 20:1-15, the FIGURE). PPi generated by ENPP1 can be hydrolyzed by tissue non-specific alkaline phosphatase (TNAP) to Pi. The heart is known to express TNAP and we confirmed that both injured and uninjured cardiac tissue is rich in tissue non-specific alkaline phosphatase (TNAP) (Cell Stem Cell (2017) 20:1-15, the FIGURE). […]

C3H animals = assay: Echocardiography of cardiac function after cardiac cryo-injury; format: in vivo, mouse
Description: We next investigated the physiologic significance of inhibiting cardiac calcification on cardiac function. In a subset of C3H animals, we performed echocardiography to determine cardiac function prior to cardiac cryo-injury and following administration of etidronate. […] Etidronate had no effect on sham injured hearts (Cell Stem Cell (2017) 20:1-15, the FIGURE).

[1] = post injury, compared to vehicle treated control animals

SMILES | post injury cardiac calcification on gross inspection (C3H mice) | reduction in calcium deposits in the injured hearts (biochemical measurements) (C3H mice) [%] | decrease in calcific deposits / calcification on micro CT with 3D reconstruction (C3H mice) [%] | post injury cardiac function (C3H animals; C3H animals, cardiac cryo-injury, echocardiography) | Ejection fraction (C3H animals; following injury) | fractional shortening (C3H animals; following injury) | systolic function (C3H animals; injured animals, echocardiography) | left ventricular end diastolic diameter (LVEDD) (C3H animals; [1]) | left ventricular end systolic diameter (LVESD) (C3H animals; [1]) | effect on sham injured hearts (C3H animals; sham injured hearts) | amount of deposited calcium (C3H mice; administered after the development of calcification, data not shown) | calcification on gross inspection or on CT scans (C3H mice; administered one day prior to cardiac cryo injury and then daily till hearts were harvested) | calcific phenotype (C3H mice; administered one day prior to cardiac cryo injury and then daily till hearts were harvested, vs vehicle injected controls)
O=C(/C=C/c1ccc(O)c(O)c1)O[C@H](Cc1ccc(O)c(O)c1)C(=O)O [SYL-001, rosmarinic acid] | decreased post injury cardiac calcification | 35 | 42 | – | – | – | – | – | – | – | – | – | –
CCN(CC)c1ncnc2c1ncn2[C@@H]1O[C@H](COP(=O)([O-])OP(=O)([O-])C(Br)(Br)P(=O)([O-])O)C(O)C1O.[Na+].[Na+].[Na+] (stereo partly shown) [ARL67156] | significantly inhibited calcification | 79 | 85 | – | – | – | – | – | – | – | – | – | –
CC(O)(P(=O)(O)O)P(=O)(O)O [etidronate, etidronic acid] | – | – | – | significant preservation of post injury cardiac function | substantially better | substantially better | better systolic function | significantly decreased | significantly decreased | no effect | did not reverse or decrease the amount of deposited calcium | no calcification was seen | completely rescued the calcific phenotype
